Assay results from patent US20250115612A1, “CERTAIN 2,5-DIAZABICYCLO[4.2.0]OCTANES AND OCTAHYDROFURO[3,4-B]PYRAZINES AS GLP-1 RECEPTOR MODULATORS” (ASTRAZENECA AB, priority 2021, published 2025).

How the values were obtained:
human GLP-1R receptor = molecular target: T1, human GLP-1R receptor (Homo sapiens, UniProt P43220, L260F); assay: CHOK1 GLP-1R cAMP assay (HTRF); assay type: cell-based; settings: CHO-K1 cells stably expressing human GLP-1R
T1 construct: expressed in transfected cells; host or cells: CHO-K1 (ATCC CCL-61)
T1 sequence (P43220 24-463 L260F): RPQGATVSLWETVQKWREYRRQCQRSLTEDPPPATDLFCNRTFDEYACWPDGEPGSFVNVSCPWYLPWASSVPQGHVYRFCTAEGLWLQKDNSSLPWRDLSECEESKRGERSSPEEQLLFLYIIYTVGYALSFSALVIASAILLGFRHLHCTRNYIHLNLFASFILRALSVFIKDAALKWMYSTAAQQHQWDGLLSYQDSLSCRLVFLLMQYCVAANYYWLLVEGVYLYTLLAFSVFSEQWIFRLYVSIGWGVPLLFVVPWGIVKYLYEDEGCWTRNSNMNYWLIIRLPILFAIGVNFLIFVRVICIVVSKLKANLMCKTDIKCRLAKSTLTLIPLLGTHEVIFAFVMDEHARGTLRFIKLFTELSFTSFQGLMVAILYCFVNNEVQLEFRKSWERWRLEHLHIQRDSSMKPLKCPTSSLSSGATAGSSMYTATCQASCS
Experimental: A cell line stably expressing the human GLP-1R receptor (NM_002062.5, including the naturally-occurring variant Leu260Phe) in a CHO-K1 (ATCC® CCL-61™) was used for assay.
GLP-1 receptor mediated agonist activity was determined in a cell-based assay measuring cyclic adenosine monophosphate (cAMP) levels in cells using Homogeneous Time-Resolved Fluorescence (HTRF) cAMP detection kit (CisBio catalog #62AM4PEC, cAMP Gs Dynamic range kit). The cAMP detection method is based on a competitive immunoassay, in which cAMP produced by the cells and cAMP labeled with the dye d2 compete for binding to a Europium-Cryptate-labeled anti-cAMP antibody. The specific HTRF signal is inversely proportional to the concentration of cAMP.
Compounds were added to individual well in 384 well-assay plates (Greiner #784076) using an Echo (LabCyte) dispenser from 10 mM stocks. Varying concentration of compounds were added to wells, and DMSO was used to normalize each well to a volume of 100 nL. A dose response curve of GLP-1(7-36)NH2 (Bachem H-6795) was included in each run. 5 μL of cAMP concentration response standards are applied in specified wells in the assay plates. Cryo-preserved cells are thawed and resuspended in assay buffer pre-heated to 37° C. (20 mM 2-[4-(2-hydroxyethyl)piperazin-1-yl]ethanesulfonic acid (HEPES) pH 7.4, lx Hank's Balanced Salt Solution (HBSS, Life Technologies #14065) supplemented with 0.1% (w/v) bovine serum albumin (Sigma, A-7030)). Cells were centrifuged at 250*g for 5 min at rt, and resuspended in room tempered assay buffer to a final density of 0.16*10^6 cell/mL, to deliver 800 cells/well. 5 μL of assay buffer with 1 mM 3-isobutyl-1-methylxanthin (IBMX; Sigma cat I-7018) was dispensed per well in assay plates using a multidrop combi (Thermo Scientific) subsequently 5 μL of cell suspension was distributed to relevant wells in the assay using a multidrop dispenser. Assay plates were incubated 20 min at rt.
Detection reagents, Europium-Cryptate-labeled anti-cAMP antibody and cAMP labeled with the dye d2, are diluted in lysis buffer, provided by the manufacturer. 5 μL of each detection reagent is supplemented to each assay well using a multidrop dispenser. Assay plates are incubated in the dark for at least one h. The HTRF signal is measured using the HTRF module (excitation: 337 nm, emission A: 665 nm and emission B: 620 nm) in Pherastar FSX (BMG Labtech).
Raw data were converted to pM cAMP using the cAMP standard curve included in each run. Converted data were further analyzed in Genedata Screener (Genedata) and EC50 determinations were made from agonist dose-response curves analyzed with a curve fitting program using a 4-parameter logistic dose response equation (Equation y=A+((B−A)/1+((C/x)^D))) where A is no stimulation, B is full stimulation, C is the EC50 and D is the Hill slope). The percent effect was determined relative to a saturating concentration of a full GLP-1R agonist (GLP-1(7-36)NH2 has 100% effect in this assay setup).

[1] = molecular target: T2, human phosphodiesterase-3A (Homo sapiens, UniProt Q14432); assay: PDE3 assay (formation of 5'AMP from cAMP, SPA); assay type: biochemical; settings: human recombinant enzyme expressed in Sf9 cells
T2 construct: host or cells: Sf9 (Spodoptera frugiperda)
T2 sequence (Q14432 whole entry): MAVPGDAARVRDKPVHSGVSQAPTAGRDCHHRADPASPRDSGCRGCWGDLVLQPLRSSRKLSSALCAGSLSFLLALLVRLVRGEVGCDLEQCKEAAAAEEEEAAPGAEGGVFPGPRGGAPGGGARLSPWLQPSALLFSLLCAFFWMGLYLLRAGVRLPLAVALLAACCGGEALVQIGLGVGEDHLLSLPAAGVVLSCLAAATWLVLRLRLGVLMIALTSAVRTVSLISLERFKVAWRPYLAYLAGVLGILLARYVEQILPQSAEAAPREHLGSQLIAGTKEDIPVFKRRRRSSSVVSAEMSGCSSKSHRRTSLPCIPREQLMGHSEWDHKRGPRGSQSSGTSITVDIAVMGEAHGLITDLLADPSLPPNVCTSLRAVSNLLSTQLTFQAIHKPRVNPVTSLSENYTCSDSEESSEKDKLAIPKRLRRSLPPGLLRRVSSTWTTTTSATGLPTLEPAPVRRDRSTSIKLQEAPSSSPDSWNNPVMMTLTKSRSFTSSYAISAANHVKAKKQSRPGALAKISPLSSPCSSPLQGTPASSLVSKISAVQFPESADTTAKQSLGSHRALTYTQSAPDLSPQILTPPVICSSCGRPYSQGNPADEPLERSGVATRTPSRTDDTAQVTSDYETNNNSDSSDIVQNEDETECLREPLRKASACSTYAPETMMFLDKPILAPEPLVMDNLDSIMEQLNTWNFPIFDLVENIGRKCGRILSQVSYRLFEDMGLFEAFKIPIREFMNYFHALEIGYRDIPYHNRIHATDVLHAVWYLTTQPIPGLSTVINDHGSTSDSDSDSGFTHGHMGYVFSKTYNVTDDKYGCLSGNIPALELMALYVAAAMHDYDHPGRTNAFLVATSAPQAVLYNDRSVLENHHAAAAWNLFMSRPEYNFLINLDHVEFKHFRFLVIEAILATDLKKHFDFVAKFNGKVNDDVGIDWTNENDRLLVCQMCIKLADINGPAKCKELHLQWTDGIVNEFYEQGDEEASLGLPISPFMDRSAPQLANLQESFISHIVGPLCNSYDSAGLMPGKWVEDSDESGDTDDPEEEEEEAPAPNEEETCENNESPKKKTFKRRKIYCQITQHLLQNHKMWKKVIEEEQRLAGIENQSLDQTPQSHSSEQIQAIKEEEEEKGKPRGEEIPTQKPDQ
Experimental: Evaluation of the effects of compounds on the activity of the human phosphodiesterase-3A is quantified by measuring the formation of 5′AMP from cAMP using a human recombinant enzyme expressed in a clonal isolate of Spodoptera frugiperda cells (Sf9) cells.
The test compound, reference compound or water (control) are added to a buffer containing 40 mM tris(hydroxymethyl)aminomethane (Tris)/HCl (pH 7.4) and 8 mM MgCl2, 450 nMcAMP and 0.25 μCi [3H]cAMP.
Thereafter, the reaction is initiated by addition of the enzyme (about 1 U) and the mixture is incubated for 20 min at 22° C.
For basal control measurements, the enzyme is omitted from the reaction mixture.
Following incubation SPA beads are added. After 30 min at 22° C. under shaking, the amount of [^3H]5′AMP is quantified with a scintillation counter (Topcount, Packard).
The results are expressed as a percent inhibition of the control enzyme activity. The standard inhibitory reference compound is milrinone (CAS number 78415-72-2), which is tested in each experiment at several concentrations to obtain an inhibition curve from which its IC50 value is calculated.

GLP-1R = molecular target: T3, GLP-1R (Homo sapiens, UniProt P43220); assay: EndoC cAMP accumulation assay (HTRF, EndoC-βH1 cells); assay type: cell-based; settings: EndoC-βH1 human pancreatic β cell line
T3 construct: host or cells: EndoC-βH1
T3 sequence (P43220 24-463): as the sequence (P43220 24-463 L260F) above, with F237L counted along it
Excerpt: EndoC cAMP Accumulation Assay
A HTRF cAMP assay (cAMP Gs dynamic kit; CisoBio Cat #62AM4PEJ) was used to identify agonists of GLP-1R in a pancreatic insulinoma cell line (EndoC-PH1). […] EndoC-βH1 cells have detectable GLP-1R messenger ribonucleic acid (mRNA) as detected by quantitative polymerase chain reaction (qPCR). […] The EndoC-βH1 cell line is a valid model of human beta cells and applicable for screenings to identify novel drug target candidates (Mol. Metab., 2018, 8, 144-157). CisBio HTRF cAMP kits are based on a competitive immunoassay using cryptate-labelled anti-cAMP antibody and d2-labeled cAMP. The detection kit is intended for the direct quantitative determination of cAMP. The specific signal (i.e. energy transfer) is inversely proportional to the concentration of cAMP in the standard or sample. Test compounds (10 mM in DMSO) were diluted into assay buffer (HBSS (Sigma #H8264) supplemented with 25 mM HEPES (Gibco #15630, pH 7.4), 0.1% BSA (Sigma #A3059) and 0.5 mM IBMX (Sigma #I7018) included fresh on the day of the assay) into 96 well U-bottom plates (Greiner #650201). Diluted compounds were transferred to ECHO source polypropelene plates (Labcyte #P-05525) and dose response curves were dispensed acoustically using ECHO 550 into black shallow-well u-bottom 384-well HTRF Assay Plates (Corning 4514).
Cryovials of EndoC-H1 (supplied at 1×10e^7 cells/vial) were used directly for screening. The cryovials and were removed from N2(l) and thawed rapidly in a 37° C. water bath. The cells were resuspended in assay buffer and centrifuged at 300 g for 5 min. Cells were resuspended in assay buffer at the appropriate concentration, typically at 12e5 cells per mL (3000 cells per well, dependent on cell batch) and 2.5 μL diluted cells were added to all wells of destination plate by Multidrop combi reagent dispenser (Thermofisher). The plates were incubated at rt for 30 min. The assay was stopped by adding 2.5 μL anti-cAMP cryptate solution to all wells and 2.5 μL cAMP-d2 solution (both diluted 1:20 in lysis buffer) to columns 1-22 by Combi drop. A volume of 2.5 μL cAMP-d2 solution was added to wells E23 to P24 and 2.5 μL lysis buffer added to wells A23 to D24 by multichannel pipette. The plates were incubated at rt for 1 h and read on an Envision plate reader using excitation wavelength of 320 nm and emission of 590 nm and 660 nm.
Raw data from Envision is converted to % DeltaF according to the manufacturer's instructions. Dose response curves are analysed via 4-Parameter Logistical Analysis and assay plate Z′ values obtained. Samples are graphed as percentage (%) activation plots compared to GIP (1-42, Bachem H-5645) with assay window defined by negative control as basal cell cAMP levels and positive control are defined by maximum GIP (82.5 nM) signal. GLP-1 (7-36 amide, Bachem H-6795) dose response curve was included on all plates.

| SMILES | EC50 (human GLP-1R receptor) | IC50 [1] | EC50 (GLP-1R) |
| --- | --- | --- | --- |
| COc1cc(C(=O)O)cc2c1nc(CN1CCN(c3cccc(OCc4ccc(Cl)cc4F)n3)[C@@H]3COC[C@@H]31)n2C[C@@H]1CCO1 (single isomer, unassigned) [Example 16a, 2-(((4aR*,7aS*)-4-(6-((4-Chloro-2-fluorobenzyl)oxy)pyridin-2-yl)hexahydrofuro[3,4-b]pyrazin-1(2H)-yl)methyl)-4-methoxy-1-(((S)-oxetan-2-yl)methyl)-1H-benzo[d]imidazole-6-carboxylic acid] | 0.63 nM | 29000 nM | 1.9 nM |
| N#Cc1ccc(COc2cccc(N3CCN(Cc4nc5cc(F)c(C(=O)O)cc5n4C[C@@H]4CCO4)[C@H]4CC[C@@H]43)n2)c(F)c1 (single isomer, unassigned) [Example 9b] | 2.1 nM | 4600 nM | 27 nM |
| COc1cc(C(=O)O)cc2c1nc(CN1CCN(c3cccc(OCc4ccc(Cl)cc4F)n3)[C@H]3CC[C@@H]31)n2C[C@@H]1CCO1 (single isomer, unassigned) [Example 5b, 2-(((1R*,6R*)-5-(6-((4-Chloro-2-fluorobenzyl)oxy)pyridin-2-yl)-2,5-diazabicyclo[4.2.0]octan-2-yl)methyl)-4-methoxy-1-(((S)-oxetan-2-yl)methyl)-1H-benzo[d]imidazole-6-carboxylic acid] | 0.5 nM | > 100000 nM | 2.1 nM |
| N#Cc1ccc(COc2cccc(C3CCN(Cc4nc5ccc(C(=O)O)cc5n4C[C@@H]4CCO4)CC3)n2)c(F)c1 [Ref Comp B, reference compound] | – | 11000 nM | – |
| N#Cc1ccc(COc2cccc(N3CCN(Cc4nc5c(F)cc(C(=O)O)cc5n4C[C@@H]4CCO4)[C@H]4CC[C@@H]43)n2)c(F)c1 (single isomer, unassigned) [Example 3b, 2-(((1R*,6R*)-5-(6-((4-Cyano-2-fluorobenzyl)oxy)pyridin-2-yl)-2,5-diazabicyclo[4.2.0]octan-2-yl)methyl)-4-fluoro-1-(((S)-oxetan-2-yl)methyl)-1H-benzo[d]imidazole-6-carboxylic acid] | 1.1 nM | 11000 nM | 8.7 nM |
| COc1cc(C(=O)O)cc2c1nc(CN1CCN(c3cccc(OCc4ccc(C#N)cc4F)n3)[C@H]3CC[C@@H]31)n2C[C@@H]1CCO1 (single isomer, unassigned) [Example 4b, 2-(((1R*,6R*)-5-(6-((4-Cyano-2-fluorobenzyl)oxy)pyridin-2-yl)-2,5-diazabicyclo[4.2.0]octan-2-yl)methyl)-4-methoxy-1-(((S)-oxetan-2-yl)methyl)-1H-benzo[d]imidazole-6-carboxylic acid] | 0.6 nM | 6500 nM | 3 nM |

Stronger by IC50 [1], values ahead:

| EC50 (human GLP-1R receptor) | IC50 [1] | EC50 (GLP-1R) | SMILES |
| --- | --- | --- | --- |
| 9.4 nM | 2200 nM | 7.2 nM | N#Cc1ccc(COc2cccc(N3CCN(Cc4nc5cc(Cl)c(C(=O)O)cc5n4C[C@@H]4CCO4)[C@H]4CC[C@H]43)n2)c(F)c1 (single isomer, unassigned) [Example 7a] |
| 2 nM | 3500 nM | 14 nM | N#Cc1ccc(COc2cccc(N3CCN(Cc4nc5ccc(C(=O)O)cc5n4C[C@@H]4CCO4)[C@H]4COC[C@H]43)n2)c(F)c1 (racemic) [Example 17, 2-(((4aRS,7aSR)-4-(6-((4-Cyano-2-fluorobenzyl)oxy)pyridin-2-yl)hexahydrofuro[3,4-b]pyrazin-1(2H)-yl)methyl)-1-(((S)-oxetan-2-yl)methyl)-1H-benzo[d]imidazole-6-carboxylic acid] |
| 8.1 nM | 2500 nM | 5.6 nM | N#Cc1ccc(COc2cccc(N3CCN(Cc4nc5c(Cl)cc(C(=O)O)cc5n4C[C@@H]4CCO4)[C@H]4CC[C@H]43)n2)c(F)c1 (single isomer, unassigned) [Example 6c] |
| 3.5 nM | 3000 nM | 2.4 nM | N#Cc1ccc(COc2cccc(N3CCN(Cc4nc5c(Cl)cc(C(=O)O)cc5n4C[C@@H]4CCO4)[C@H]4CC[C@H]43)n2)c(F)c1 (single isomer, unassigned) [Example 6d] |
| 4 nM | 3800 nM | 5.5 nM | COc1cc(C(=O)O)cc2c1nc(CN1CCN(c3cccc(OCc4ccc(C#N)cc4F)n3)[C@H]3CC[C@@H]31)n2C[C@@H]1CCO1 (single isomer, unassigned) [Example 4a, 2-(((1R*,6R*)-5-(6-((4-Cyano-2-fluorobenzyl)oxy)pyridin-2-yl)-2,5-diazabicyclo[4.2.0]octan-2-yl)methyl)-4-methoxy-1-(((S)-oxetan-2-yl)methyl)-1H-benzo[d]imidazole-6-carboxylic acid] |
| 0.6 nM | 2900 nM | 1.9 nM | N#Cc1ccc(COc2cccc(N3CCN(Cc4nc5c(Cl)cc(C(=O)O)cc5n4C[C@@H]4CCO4)[C@H]4CC[C@H]43)n2)c(F)c1 (single isomer, unassigned) [Example 6a] |
